# From US20140005164A1, “WNT PATHWAY ANTAGONISTS” (Siena Biotech S.p.A., priority 2011, published 2014)
# Tested on: Wnt/β-catenin pathway
# Assay: Wnt reporter assay (TCF-Luciferase, Firefly) in DBTRG-05MG cells
# Format: cell-based
# Conditions: Homo sapiens, TCF-Luciferase (Firefly) read out, 24 hours after compound addition, range given with mixed units nM and μM, read-out: IC50 value in the reporter assay
# Method: Three copies of a 4×TCF responsive elements were cloned into the pcDNA3.1/Zeo(+) vector (Invitrogen) after deletion of the constitutive CMV promoter and the insertion of the Firefly Luciferase from Promega (phFL-TK) to measure the activity of the Wnt/β-catenin pathway. The resulting plasmid was sequenced for quality control.
# Cells were grown in 20 μg/ml Zeocin and 20 μg/ml Zeocin plus 30 μg/ml Hygromicin respectively. The cells were plated at a density of 6500 cells/well in poly-D-lysine pre-treated 96 well-plates.
# 36 hours after plating cells were incubated with 8-points dilutions compound (0.6% DMSO (v/v)). Each compound was tested in triplicate in single plate. Luciferase detection was done with Dual-Luciferase Reporter Assay System (Promega). 24 hours after compound addition, media was removed and 30 μl of 1× lysis buffer was added to each well for 30 minutes. To each well 45 μl of Dual-Glo Luciferase reagent (Promega) were added and after 1 second delay Luciferase was detected for 1 second using Mithras LB940 instrument. After Firefly luciferase quantification 45 μl of Dual Stop & Glo reagent (Promega) were added to each well and […] Renilla was detected using the same parameters described before.
# Data were expressed as % of control for Firefly and Renilla luciferase independently; values were calculated using XLFit version 4.2, with a four parameters sigmoid function (XLFit model 205).
row,SMILES,IC50 [nM]
1,Cn1c(=O)n(C[C@H]2CC[C@H](c3nnc(-c4cccnc4)o3)CC2)c2cc(C#N)ccc21 [Example 124],35 to 23000
2,COCCNc1ccc2c(n1)n(C[C@H]1CC[C@H](C(=O)Nc3ccncc3)CC1)c(=O)n2C [Example 125],35 to 23000
3,Cn1c(=O)n(C[C@H]2CC[C@H](C(=O)Nc3ccncc3)CC2)c2nc(NCc3cccnc3)ccc21 [Example 126],35 to 23000
4,Cn1c(=O)n(C[C@H]2CC[C@H](C(=O)Nc3ccncc3)CC2)c2nc(NCc3ccco3)ccc21 [Example 127],35 to 23000
5,COc1ccc2c(c1)n(C[C@H]1CC[C@H](c3nnc(-c4cnc(C)cn4)o3)CC1)c(=O)n2C [Example 128],35 to 23000
6,COCCOCCOc1ccc2c(c1)n(C[C@H]1CC[C@H](C(=O)Nc3ccncc3)CC1)c(=O)n2C [Example 129],35 to 23000
7,COCCOc1ccc2c(c1)n(C[C@H]1CC[C@H](C(=O)N3CC=C(c4cnn(C)c4)CC3)CC1)c(=O)n2C [Example 130],35 to 23000
8,COc1ccc2c(c1)n(C[C@H]1CC[C@H](c3nnc(-c4cc(C)on4)o3)CC1)c(=O)n2C [Example 131],35 to 23000
9,COc1ccc2c(c1)n(C[C@H]1CC[C@H](C(=O)N3CCN(c4ccn(C)n4)CC3)CC1)c(=O)n2C [Example 132],35 to 23000
10,COc1ccc2c(c1)n(C[C@H]1CC[C@H](C(=O)Nc3ccn(C)n3)CC1)c(=O)n2C [Example 133],35 to 23000
11,Cn1ccc(N2CCN(C(=O)[C@H]3CC[C@H](Cn4c(=O)n(C)c5ccc(=O)[nH]c54)CC3)CC2)n1 [Example 134],35 to 23000
12,Cn1cc(C2=CCN(C(=O)[C@H]3CC[C@H](Cn4c(=O)n(C)c5ccc(=O)[nH]c54)CC3)CC2)cn1 [Example 135],35 to 23000
13,Cn1c(=O)n(C[C@H]2CC[C@H](C(=O)Nc3ccncc3)CC2)c2cc(OCCCC#N)ccc21 [Example 136],35 to 23000
14,Cn1c(=O)n(C[C@H]2CC[C@H](C(=O)Nc3ccncc3)CC2)c2cc(OCCF)ccc21 [Example 137],35 to 23000
15,Cn1c(=O)n(C[C@H]2CC[C@H](C(=O)Nc3ccncc3)CC2)c2cc(OCCC=C(F)F)ccc21 [Example 138],35 to 23000
16,Cn1c(=O)n(C[C@H]2CC[C@H](C(=O)Nc3ccncc3)CC2)c2[nH]c(=O)ccc21 [Example 139],35 to 23000
17,COc1ccc2c(c1)n(C[C@H]1CC[C@H](C(=O)N3CCN(c4cnn(C)c4)CC3)CC1)c(=O)n2C [Example 141],35 to 23000
18,Cn1c(=O)n(C[C@H]2CC[C@H](C(=O)Nc3ccncc3)CC2)c2ncccc21 [Example 142],35 to 23000
19,COc1cc2c(cc1F)n(C)c(=O)n2C[C@H]1CC[C@H](C(=O)N2CC=C(c3cnn(C)c3)CC2)CC1 [Example 143],35 to 23000
20,COc1ccc2c(c1)n(C[C@H]1CC[C@H](C(=O)N3CCN(c4cc(C)no4)CC3)CC1)c(=O)n2C [Example 144],35 to 23000
21,COc1ccc2c(c1)n(C[C@H]1CC[C@H](c3nnc(C4CCOCC4)o3)CC1)c(=O)n2C [Example 145],35 to 23000
22,COCCOc1ccc2c(c1)n(C[C@H]1CC[C@H](c3nnc(-c4cccnc4)o3)CC1)c(=O)n2C [Example 146],35 to 23000
23,COc1ccc2c(c1)n(C[C@H]1CC[C@H](c3nnc(-c4c(C)nn(C)c4C)o3)CC1)c(=O)n2C [Example 148],35 to 23000
24,COc1ccc2c(c1)n(C[C@H]1CC[C@H](c3nnc(-c4cc(C)nn4C)o3)CC1)c(=O)n2C [Example 149],35 to 23000
25,COCCOc1ccc2c(n1)n(C[C@H]1CC[C@H](C(=O)Nc3ccncc3)CC1)c(=O)n2C [Example 150],35 to 23000
26,Cn1c(=O)n(C[C@H]2CC[C@H](C(=O)Nc3ccncc3)CC2)c2cc(OCc3ccncc3)ccc21 [Example 151],35 to 23000

row,SMILES,IC50 [nM]
1,Cn1cc(C2=CCN(C(=O)[C@H]3CC[C@H](Cn4c(=O)n(C)c5ccc(C#N)cc54)CC3)CC2)cn1 [Example 154],35 to 23000
2,Cn1c(=O)n(C[C@H]2CC[C@H](C(=O)N3CCN(c4cnccn4)CC3)CC2)c2cc(C#N)ccc21 [Example 155],35 to 23000
3,Cn1c(=O)n(C[C@H]2CC[C@H](C(=O)Nc3ccncc3)CC2)c2nc(OCc3ccccn3)ccc21 [Example 156],35 to 23000
4,COCCOc1ccc2c(c1)n(C[C@H]1CC[C@H](C(=O)N3CCN(c4ccncc4)CC3)CC1)c(=O)n2C [Example 157],35 to 23000
5,Cn1c(=O)n(C[C@H]2CC[C@H](C(=O)Nc3ccncc3)CC2)c2nc(OCCN3CCOCC3)ccc21 [Example 158],35 to 23000
6,COc1cc2c(cc1F)n(C)c(=O)n2C[C@H]1CC[C@H](C(=O)Nc2ccncn2)CC1 [Example 159],35 to 23000
7,COc1cc2c(cc1F)n(C)c(=O)n2C[C@H]1CC[C@H](C(=O)N2CCOCC2)CC1 [Example 160],35 to 23000
8,Cn1cc(-c2nnc([C@H]3CC[C@H](Cn4c(=O)n(C)c5ccc(C#N)cc54)CC3)o2)cn1 [Example 162],35 to 23000
9,COCCOc1ccc2c(c1)n(C[C@H]1CC[C@H](c3nnc(-c4cccnn4)o3)CC1)c(=O)n2C [Example 163],35 to 23000
10,COc1ccc2c(c1)n(C[C@H]1CC[C@H](c3nnc(-c4ccnnc4)o3)CC1)c(=O)n2C [Example 164],35 to 23000
11,Cn1c(=O)n(C[C@H]2CC[C@H](C(=O)Nc3ccncc3)CC2)c2cc(OC(F)F)ccc21 [Example 165],35 to 23000
12,Cn1cc(C2=CCN(C(=O)[C@H]3CC[C@H](Cn4c(=O)n(C)c5ccc(OC(F)F)cc54)CC3)CC2)cn1 [Example 166],35 to 23000
13,Cn1c(=O)n(C[C@H]2CC[C@H](C(=O)Nc3ccncc3)CC2)c2nc(OCC#N)ccc21 [Example 167],35 to 23000
14,Cn1c(=O)n(C[C@H]2CC[C@H](C(=O)Nc3ccncc3)CC2)c2nc(OCC3CCCCO3)ccc21 (stereo partly shown) [Example 168],35 to 23000
15,COc1cc2c(cc1F)n(C)c(=O)n2C[C@H]1CC[C@H](C(=O)Nc2ccnnc2)CC1 [Example 169],35 to 23000
16,Cn1c(=O)n(C[C@H]2CC[C@H](C(=O)Nc3ccncc3)CC2)c2nc(C3CC3)ccc21 [Example 170],35 to 23000
17,Cn1c(=O)n(C[C@H]2CC[C@H](C(=O)Nc3ccncc3)CC2)c2nc(OCC(F)(F)F)ccc21 [Example 171],35 to 23000
18,COc1ccc2c(c1)n(C[C@H]1CC[C@H](c3noc(-c4cccnc4)n3)CC1)c(=O)n2C [Example 172],35 to 23000
19,COCCOc1ccc2c(n1)n(C[C@H]1CC[C@H](C(=O)Nc3ccnnc3)CC1)c(=O)n2C [Example 173],35 to 23000
20,COCCOc1ccc2c(n1)n(C[C@H]1CC[C@H](C(=O)N3CCN(c4cnn(C)c4)CC3)CC1)c(=O)n2C [Example 174],35 to 23000
21,COc1cc2c(cc1F)n(C)c(=O)n2C[C@H]1CC[C@H](c2nnc(-c3cccnc3)o2)CC1 [Example 175],35 to 23000
22,COCCOc1cc2c(cc1F)n(C)c(=O)n2C[C@H]1CC[C@H](C(=O)Nc2ccnnc2)CC1 [Example 176],35 to 23000
23,COCCOc1cc2c(cc1F)n(C)c(=O)n2C[C@H]1CC[C@H](C(=O)N2CCOCC2)CC1 [Example 177],35 to 23000
24,COc1cc2c(cc1F)n(C)c(=O)n2C[C@H]1CC[C@H](C(=O)N2CCN(c3ncccn3)CC2)CC1 [Example 178],35 to 23000
25,COc1cc2c(cc1F)n(C)c(=O)n2C[C@H]1CC[C@H](C(=O)N2C[C@@H](C)O[C@@H](C)C2)CC1 [Example 179],35 to 23000
26,COCCOc1ccc2c(n1)n(C[C@H]1CC[C@H](c3nnc(-c4cnn(C)c4)o3)CC1)c(=O)n2C [Example 180],35 to 23000
